Measurements as given in patent publication US11951094B2, “TLR2 modulator compounds, pharmaceutical compositions and uses thereof” (Axial Therapeutics, Inc., priority 2020, dated 2024).
Counter-ions that a name gives are not always drawn.

Molecular target: TLR2 (Homo sapiens, UniProt O60603)
Assay: TLR2 agonist screening assay, HEK-Blue TLR2 reporter cell line (NF-kB-driven SEAP, absorbance at 600 nm)
Type: cell-based
Parameters: host or cells: HEK-293 (HEK-Blue TLR2 reporter cell line)
Conditions: HEK-Blue TLR2 reporter cells, agonist mode
Text: TLRs are a class of cell-surface receptors expressed on many different cell types that recognize conserved structural motifs present on pathogen-derived molecules. TLR2 recognizes bacteria-derived lipopeptides. […] Provided herein is an assay to identify and characterize the binding affinities of novel TLR2 agonists.
The in vitro TLR2 assay consists of a cell line that responds to TLR2 engagement by producing a factor that elicits a color change in the culture media and can be readily measured by various colorimetric detection methods. This assay enables the identification of existing and novel compounds that engage TLR2 and, by virtue of compound dilution, to approximate the binding affinity of these compounds for eliciting a TLR2 signal.
The TLR2 screening assay was developed from the HEK-Blue TLR2 reporter cell line that is commercially available from Invivogen (San Diego, CA). The reporter cell line consists of HEK-293 embryonic kidney cells that have been engineered to express TLR2 and with an NF-kB promoter driving expression of Secreted Alkaline Phosphatase (SEAP). Upon engagement of TLR2, downstream signaling results in activation of NF-kB pathway activation and secretion of SEAR In the presence of the detection reagent in the tissue culture media, SEAP mediates a color change from clear to indigo that is readily assessed by measuring absorbance at 600 nm.
HEK-Blue TLR2 reporter cells are cultured according to manufacturer's specifications until a confluence of 70-90%, at which point the cells are trypsinized, counted, and plated into 96-well plates at approximately 40,000 cells per well. Cells are cultured overnight and the TLR2 assay is performed 16-24 hours post-plating into 96 well plates.
Compounds are diluted from stocks dissolved in DMSO and a 1% DMSO final concentration is maintained in all testing wells.
The assay consists of removing the cell culture media after cells have been cultured overnight and replacing the media with HEK-Blue Detection media with TLR2 agonists at indicated dilution schemes. The Detection media contains a chemical substrate that turns from clear to indigo when acted upon by SEAP. The HEK-Blue cells are then cultured overnight in Detection media with diluted compounds. After overnight culture with agonists, each well of the plate is assayed in a plate reader at 600 nanometer absorbance.
• (1) HEK-Blue TLR2 cells are diluted in complete DME culture medium and plated into 96-well plates at 40,000 cells per well and cultured overnight. • (2) After 16-24 hours in culture, the media is removed and replaced with 200 microliters per well of HEK-Blue Detection media. • (3) TLR2 agonists are diluted 100-fold from DMSO stocks into each well, yielding a final DMSO concentration of 1% in all wells. • (3) Treated cells are cultured overnight and the following day are assayed in plate reader for Absorbance at 600 nanometer.
Following assay measurements utilizing either HEK-Blue detection or cytokine release, all data is analyzed with the GraphPad Prism8 statistical package to determine EC50, binding and activity metrics for the TLR2 modulators.
Data is generated using protocol described in Example 44.

Chain of TLR2 (O60603 21-784): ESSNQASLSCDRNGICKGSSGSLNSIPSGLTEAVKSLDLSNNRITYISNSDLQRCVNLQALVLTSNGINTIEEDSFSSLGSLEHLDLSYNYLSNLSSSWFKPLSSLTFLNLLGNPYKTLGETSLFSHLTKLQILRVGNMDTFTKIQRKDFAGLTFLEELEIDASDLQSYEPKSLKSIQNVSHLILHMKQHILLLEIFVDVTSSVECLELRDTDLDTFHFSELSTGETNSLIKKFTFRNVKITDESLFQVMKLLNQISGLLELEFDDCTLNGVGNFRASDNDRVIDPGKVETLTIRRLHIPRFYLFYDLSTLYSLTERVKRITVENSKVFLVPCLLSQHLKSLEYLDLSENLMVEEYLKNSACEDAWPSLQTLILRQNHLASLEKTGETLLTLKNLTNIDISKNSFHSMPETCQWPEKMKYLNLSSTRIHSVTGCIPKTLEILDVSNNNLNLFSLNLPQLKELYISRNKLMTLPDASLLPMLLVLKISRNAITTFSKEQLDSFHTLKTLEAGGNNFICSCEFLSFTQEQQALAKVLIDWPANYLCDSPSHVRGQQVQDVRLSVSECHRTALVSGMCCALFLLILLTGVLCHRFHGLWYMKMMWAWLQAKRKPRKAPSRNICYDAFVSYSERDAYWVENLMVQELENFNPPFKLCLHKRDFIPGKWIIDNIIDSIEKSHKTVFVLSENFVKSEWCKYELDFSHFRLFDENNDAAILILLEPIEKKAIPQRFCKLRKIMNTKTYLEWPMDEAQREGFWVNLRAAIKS

Row | SMILES | EC50 (average of all runs (Table 4)) [nM] | EC50 (average of all runs (Table 3)) [nM]
1 | O=C(NC1CCCCCCC1)[C@H]1CCN(C(=O)c2ccc(C(=O)N3C[C@@H](C(=O)N[C@H]4C[C@@H]4c4ccccc4)[C@H](C(=O)N[C@H]4C[C@@H]4c4ccccc4)C3)cc2)C1 [Compound 003] | – | > 1000
2 | CCCCCCCCCCCCCCNC(=O)[C@H]1CCN(C(=O)c2ccc(C(=O)N3C[C@@H](C(=O)N[C@H]4C[C@@H]4c4ccccc4)[C@H](C(=O)N[C@H]4C[C@@H]4c4ccccc4)C3)cc2)C1 [Compound 004] | – | 0.1 to 50
3 | CCCCCCCCCCCCCCNC(=O)C1CN(C(=O)c2ccc(C(=O)N3C[C@@H](C(=O)N[C@H]4C[C@@H]4c4ccccc4)[C@H](C(=O)N[C@H]4C[C@@H]4c4ccccc4)C3)cc2)CCO1 (some centres unmarked) [Compound 006] | – | 351 to 1000
4 | CCCCCCN(CCCCCC)C(=O)[C@H]1CCN(C(=O)c2ccc(C(=O)N3C[C@@H](C(=O)N[C@H]4C[C@@H]4c4ccccc4)[C@H](C(=O)N[C@H]4C[C@@H]4c4ccccc4)C3)cc2)C1 [Compound 009] | – | > 1000
5 | CCCCCCCCCCCCCCNC(=O)C1CCN(C(=O)c2ccc(C(=O)N3C[C@@H](C(=O)N[C@H]4C[C@@H]4c4ccccc4)[C@H](C(=O)N[C@H]4C[C@@H]4c4ccccc4)C3)cc2)CC1 [Compound 010] | – | > 1000
6 | CCCCCCCCCCCCCCNC(=O)CC(C)(C)NC(=O)c1ccc(C(=O)N2C[C@@H](C(=O)N[C@H]3C[C@@H]3c3ccccc3)[C@H](C(=O)N[C@H]3C[C@@H]3c3ccccc3)C2)cc1 [Compound 011] | – | > 1000
7 | CCCCCCCCCCCCCCC(=O)NC(C)(C)CNC(=O)c1ccc(C(=O)N2C[C@@H](C(=O)N[C@H]3C[C@@H]3c3ccccc3)[C@H](C(=O)N[C@H]3C[C@@H]3c3ccccc3)C2)cc1 [Compound 012] | – | > 1000
8 | CCCCCCNC(=O)CC[C@H](NC(=O)c1ccc(C(=O)N2C[C@@H](C(=O)N[C@H]3C[C@@H]3c3ccccc3)[C@H](C(=O)N[C@H]3C[C@@H]3c3ccccc3)C2)cc1)C(=O)NCCCCCC [Compound 013] | – | > 1000
9 | CCCCCCNC(=O)C[C@H](NC(=O)c1ccc(C(=O)N2C[C@@H](C(=O)N[C@H]3C[C@@H]3c3ccccc3)[C@H](C(=O)N[C@H]3C[C@@H]3c3ccccc3)C2)cc1)C(=O)NCCCCCC [Compound 014] | – | > 1000
10 | CCCCCCNC(=O)[C@H](CNC(=O)CCCCCC)NC(=O)c1ccc(C(=O)N2C[C@@H](C(=O)N[C@H]3C[C@@H]3c3ccccc3)[C@H](C(=O)N[C@H]3C[C@@H]3c3ccccc3)C2)cc1 [Compound 015] | – | > 1000
11 | CCCCCCCOC1CN(C(=O)c2ccc(C(=O)N3C[C@@H](C(=O)N[C@H]4C[C@@H]4c4ccccc4)[C@H](C(=O)N[C@H]4C[C@@H]4c4ccccc4)C3)cc2)C[C@H]1OCCCCCCC (some centres unmarked) [Compound 016] | – | > 1000
12 | CCCCCCNC(=O)[C@H](CCNC(=O)c1ccc(C(=O)N2C[C@@H](C(=O)N[C@H]3C[C@@H]3c3ccccc3)[C@H](C(=O)N[C@H]3C[C@@H]3c3ccccc3)C2)cc1)NC(=O)CCCCCC [Compound 017] | – | > 1000
13 | CCCCCCCCN1CCN(C(=O)c2ccc(C(=O)N3C[C@@H](C(=O)N[C@H]4C[C@@H]4c4ccccc4)[C@H](C(=O)N[C@H]4C[C@@H]4c4ccccc4)C3)cc2)CC1C(=O)NCCCCCC (stereo partly drawn) [Compound 018, (3S,4S)-1-(4-(3-(hexylcarbamoyl)-4-octylpiperazine-1-carbonyl)benzoyl)-N3,N4-bis((1S,2R)-2-phenylcyclopropyl)pyrrolidine-3,4-dicarboxamide formate] | – | 351 to 1000
14 | CCCCCCCC(=O)N1CCN(C(=O)c2ccc(C(=O)N3C[C@@H](C(=O)N[C@H]4C[C@@H]4c4ccccc4)[C@H](C(=O)N[C@H]4C[C@@H]4c4ccccc4)C3)cc2)CC1C(=O)NCCCCCC (stereo partly drawn) [Compound 019, (3S,4S)-1-(4-(3-(hexylcarbamoyl)-4-octanoylpiperazine-1-carbonyl)benzoyl)-N3,N4-bis((1S,2R)-2-phenylcyclopropyl)pyrrolidine-3,4-dicarboxamide] | – | 0.1 to 50

Continued, values first:

Row | EC50 (average of all runs (Table 4)) [nM] | EC50 (average of all runs (Table 3)) [nM] | SMILES
15 | 0.1 to 50 | – | CCCCCCCCCCCCNC(=O)N[C@H]1CN(C(c2ccc(C(=O)N3C[C@@H](C(=O)N[C@H]4C[C@@H]4c4ccccc4)[C@H](C(=O)N[C@H]4C[C@@H]4c4ccccc4)C3)cc2)C(F)(F)F)C[C@@H]1OC (single isomer, unassigned) [Compound 232, (3S,4S)-1-(4-((R*)-1-((3S,4S)-3-(3-dodecylureido)-4-methoxypyrrolidin-1-yl)-2,2,2-trifluoroethyl)benzoyl)-N3,N4-bis((1S,2R)-2-phenylcyclopropyl)pyrrolidine-3,4-dicarboxamide]
16 | 0.1 to 50 | – | CCCCCCCCCCCCNC(=O)N[C@H]1CN(C(c2ccc(C(=O)N3C[C@@H](C(=O)N[C@H]4C[C@@H]4c4ccccc4)[C@H](C(=O)N[C@H]4C[C@@H]4c4ccccc4)C3)cc2)C(F)(F)F)C[C@@H]1OC (single isomer, unassigned) [Compound 233, (3S,4S)-1-(4-((S*)-1-((3S,4S)-3-(3-dodecylureido)-4-methoxypyrrolidin-1-yl)-2,2,2-trifluoroethyl)benzoyl)-N3,N4-bis((1S,2R)-2-phenylcyclopropyl)pyrrolidine-3,4-dicarboxamide]
17 | – | > 1000 | CCCCCCCCOC1CN(C(=O)c2ccc(C(=O)N3C[C@@H](C(=O)N[C@H]4C[C@@H]4c4ccccc4)[C@H](C(=O)N[C@H]4C[C@@H]4c4ccccc4)C3)cc2)C[C@H]1OCCCCCCCC (some centres unmarked) [Compound 020]
18 | – | > 1000 | CCCCCCNC(=O)[C@H](CCNC(=O)CCCCCC)NC(=O)c1ccc(C(=O)N2C[C@@H](C(=O)N[C@H]3C[C@@H]3c3ccccc3)[C@H](C(=O)N[C@H]3C[C@@H]3c3ccccc3)C2)cc1 [Compound 021]
19 | – | > 1000 | CCCCCN(CCCCC)C(=O)[C@H]1CCN(C(=O)c2ccc(C(=O)N3C[C@@H](C(=O)N[C@H]4C[C@@H]4c4ccccc4)[C@H](C(=O)N[C@H]4C[C@@H]4c4ccccc4)C3)cc2)C1 [Compound 022]
20 | – | 0.1 to 50 | CCCCCCCCCCCCCCNC(=O)C1CN(C(=O)c2ccc(C(=O)N3C[C@@H](C(=O)N[C@H]4C[C@@H]4c4ccccc4)[C@H](C(=O)N[C@H]4C[C@@H]4c4ccccc4)C3)cc2)CCN1C (stereo partly drawn) [Compound 023, (3S,4S)-1-(4-(4-methyl-3-(tetradecylcarbamoyl)piperazine-1-carbonyl)benzoyl)-N3,N4-bis((1S,2R)-2-phenylcyclopropyl)pyrrolidine-3,4-dicarboxamide formate]
21 | – | 51 to 350 | CCCCCCCCCCCCCCNC(=O)[C@@H]1CN(C(=O)c2ccc(C(=O)N3C[C@@H](C(=O)N[C@H]4C[C@@H]4c4ccccc4)[C@H](C(=O)N[C@H]4C[C@@H]4c4ccccc4)C3)cc2)C[C@H]1NC(C)=O [Compound 028, (3S,4S)-1-(4-((3S,4R)-3-acetamido-4-(tetradecylcarbamoyl)pyrrolidine-1-carbonyl)benzoyl)-N3,N4-bis((1S,2R)-2-phenylcyclopropyl)pyrrolidine-3,4-dicarboxamide]
22 | – | 51 to 350 | CCCCCCNC(=O)[C@H]1CN(C(=O)c2ccc(C(=O)N3C[C@@H](C(=O)N[C@H]4C[C@@H]4c4ccccc4)[C@H](C(=O)N[C@H]4C[C@@H]4c4ccccc4)C3)cc2)C[C@@H]1C(=O)NCCCCCC [Compound 029]
23 | – | > 1000 | CCCCCCCC(=O)N1CCN(C(=O)c2ccc(C(=O)N3C[C@@H](C(=O)N[C@H]4C[C@@H]4c4ccccc4)[C@H](C(=O)N[C@H]4C[C@@H]4c4ccccc4)C3)cc2)C[C@H]1C(=O)NCCCCCC [Compound 030]
24 | – | > 1000 | CCCCCCCCN1CCN(C(=O)c2ccc(C(=O)N3C[C@@H](C(=O)N[C@H]4C[C@@H]4c4ccccc4)[C@H](C(=O)N[C@H]4C[C@@H]4c4ccccc4)C3)cc2)C[C@H]1C(=O)NCCCCCC [Compound 031]
25 | – | 0.1 to 50 | CCCCCCNC(=O)[C@@H]1CN(C(=O)c2ccc(C(=O)N3C[C@@H](C(=O)N[C@H]4C[C@@H]4c4ccccc4)[C@H](C(=O)N[C@H]4C[C@@H]4c4ccccc4)C3)cc2)C[C@H]1C(=O)NCCCCCC [Compound 035]
26 | – | 51 to 350 | CCCCCCCCN1CCN(C(=O)c2ccc(C(=O)N3C[C@@H](C(=O)N[C@H]4C[C@@H]4c4ccccc4)[C@H](C(=O)N[C@H]4C[C@@H]4c4ccccc4)C3)cc2)C[C@@H]1C(=O)NCCCCCC [Compound 037, (3S,4S)-1-(4-((R)-3-(hexylcarbamoyl)-4-octylpiperazine-1-carbonyl)benzoyl)-N3,N4-bis((1S,2R)-2-phenylcyclopropyl)pyrrolidine-3,4-dicarboxamide formate]
